The values that follow come from US9334249B2, “Inhibitors of cytomegalovirus” (Boehringer Ingelheim International GmbH, priority 2012, dated 2016).

Common to all, as to format: cell-based, Human Cytomegalovirus
Assay [1] relates to HCMV AD169 virus. Briefly: HCMV AD169 CPE assay (MTS dye reduction, MRC-5 cells). Conditions: Human betaherpesvirus 5, AD169, MRC5, 216 h, 9 days, read-out: EC50 (nM) Example A. Here is the method:
HCMV AD169 CPE Assay This assay format is a CPE (Cytopathic effect)-based assay that determines the ability of compounds to protect cells against infection with a dye reduction assay (MTS of CellTiter 96® AQueous Non-Radioactive Cell Proliferation Assay from Promega). The conversion of MTS into aqueous, soluble formazan is performed by dehydrogenase enzymes found in metabolically active cells. The quantity of formazan product determined by absorbance at 490 nm is directly proportional to the number of living cells in culture. [table] Serial dilutions of the DMSO stock compound solution are performed using DMSO in columns 2-11 and 14-23. DMSO alone is present in columns 1, 12, 13 and 24. Four μL of the DMSO serial dilutions is obtained and diluted using 96 μL of D-MEM 5% FBS culture medium to obtain 4% DMSO (7×). To perform the assay, 10 μL of the freshly prepared 4% DMSO serial dilution plate is added to the assay plate containing 40 μL of MRC-5 cells plated the day before (10000 cells per well). Twenty μL of diluted virus is added to columns 2-12 and 14-24 and only D-MEM 5% FBS medium to uninfected control (columns 1 and 13) for a final DMSO concentration of 0.6%. The virus dilution is based on the amount of virus required to obtain a Signal-to-Background of 3-4 (generally between 0.1 and 1 μL of virus stock per well or MOI=0.05). The assay plates are incubated at 37° C. with 5% CO2 for 9 days in order to obtain 100% CPE in infected control without compound (columns 12 and 24). Ten μL of freshly mixed room temperature MTS/PMS (1:20 v/v) is added and the plates are incubated at 37° C. with 5% CO2 for 4-5 h (until signal saturation at 2.3 in the 100% CPE control). The plates are sealed with TopSeal for biosafety and read on the Envision plate reader (Perkin-Elmer) or equivalent at OD 492 nm.
Background: Tetrazolium dyes change colour on reduction, which living cells bring about.

Assay [2] concerns HCMV AD169-Bac-Luc2 US2-US6 clone #26 virus. As to the kind of experiment: HCMV AD169-Bac luciferase assay (MRC-5 cells). The conditions noted are these: Human betaherpesvirus 5, AD169, MRC5, 72 h, read-out: EC50 (nM) Example B. From the text: HCMV AD169-Bac Luciferase Assay
This assay format is a luciferase reporter-based assay that determines the ability of compounds to inhibit the infection by detecting a luciferase signal decrease following the addition of BIGlo substrate (preparation indicated below) directly in the culture media. Mono-oxygenation of luciferin is catalyzed by luciferase in the presence of Mg2+, ATP and molecular oxygen. The generation of oxyluciferin is a luminescent reaction that can be detected with the proper platereader. Human Cytomegalovirus AD169-Bac is obtained from Dr. Thomas Shenk at Princeton University (reference paper Yu et al. 2002—J. Virol. 76 (5):2316-2328, herein incorporated by reference) and modified by recombineering to introduce a humanized firefly luciferase gene (Luc2) at the US2-US6 position in the HCMV genome. The virus is expanded in MRC-5 cells.
Serial dilutions of the DMSO stock compound solution are performed using DMSO in columns 2-11 and 14-23. DMSO alone is present in columns 1, 12, 13 and 24. Four μL of the DMSO serial dilutions is obtained and diluted using 96 μL of D-MEM 5% FBS culture medium to obtain 4% DMSO (7×).
To perform the assay, 7 μL of the freshly prepared 4% DMSO serial dilution plate is added to the assay plate containing 25 μL of MRC-5 cells plated the day before (10000 cells per well). Seventeen μL of diluted virus is added to columns 2-12 and 14-24 and only D-MEM 5% FBS medium to uninfected control (columns 1 and 13) for a final DMSO concentration of 0.6%. The virus dilution is based on the amount of virus required to obtain the highest luciferase signal possible without CPE (generally between 0.05 and 1 μL of virus stock per well or MOI=0.02). The assay plates are incubated at 37° C. with 5% CO2 for 3 days. Fifteen μL of room temperature BIGlo buffer is added to room temperature assay plates also incubated at room temperature for 15 minutes. The plates are sealed with TopSeal for biosafety and the luminescence signal is read on the TopCount plate reader (Perkin-Elmer) or equivalent.

Assay [3] concerns HCMV AD169 virus. As to the kind of experiment: HCMV AD169 qPCR 96-well assay (viral DNA replication, MRC-5 cells). Conditions: Human betaherpesvirus 5, AD169, MRC5, 72 h, qPCR of viral DNA, 3 days, read-out: EC50 (nM) Example C. Here is the method: HCMV AD169 qPCR 96-Well Assay
The hCMV quantitative PCR (qPCR) assay evaluates the ability of a compound to inhibit, directly or indirectly, the replication of hCMV viral DNA during the first 72 h following the infection. Compounds that inhibit either entry or the hCMV polymerase are active in this assay. Compounds are tested in the qPCR assay in 96-well plates, using a 9-point dose-response with 8 compounds for each 96-well plate. The assay was adapted from the method described by Schnepf et al., Rapid determination of antiviral drug susceptibility of human cytomegalovirus by real-time PCR, Antiviral Research 81 (2009) 64-67. […]

In general, EC50 refers to the concentration at which the effect is half-maximal. With `O=C(Cc1ccc(NC(=O)c2cscn2)cc1)Nc1cc(C(F)(F)F)cc(C(F)(F)F)c1` [Compound 1122], the EC50 in assay [1] is 142 nM; in assay [2] it was 110 nM.
`CC(C(=O)Nc1nc2ccc(NC(=O)c3cscn3)cc2[nH]1)c1cccc(Cl)c1` (stereo not shown) [Compound 1037]: the EC50 in assay [2] amounted to 69 nM.
`O=C(Cn1ccc(NC(=O)c2cscn2)cc1=O)Nc1cccc(C(F)(F)F)c1` [Compound 1148]: in assay [2], the EC50 came to 658 nM.
For the compound `O=C(Cc1ccc(NC(=O)c2cscn2)nc1)Nc1cc(C(F)(F)F)cc(C(F)(F)F)c1` [Compound 1131], the values for the EC50 in assay [1], in assay [2] and in assay [3] were 1520 nM, 143 nM and 220 nM, respectively.
The like results for `O=C(Cc1cccc(C(F)(F)F)c1)Nc1ccc2nc(NC(=O)c3cscn3)sc2c1` [Compound 1158] were, in that order, 250 nM, 45 nM and 180 nM.
In the case of `O=C(Cc1cccc(C(F)(F)F)c1)Nc1ccc(NC(=O)c2cscn2)nc1` [Compound 1027], the EC50 in assay [1] turned out to be 2800 nM.
`CC(C(=O)Nc1nc2ccc(NC(=O)c3cscn3)cc2n1C)c1cccc(Cl)c1` (stereo not shown) [Compound 1137]: the EC50 in assay [1] was 1700 nM; in assay [2], 1600 nM.
Turning to `N#Cc1cccc(CC(=O)Nc2nc3ccc(NC(=O)c4cscn4)cc3s2)c1` [Compound 1098], the EC50 in assay [2] amounted to 74 nM.
As for `O=C(Cc1ccc(NC(=O)c2cscn2)cn1)Nc1cc(C(F)(F)F)cc(C(F)(F)F)c1` [Compound 1143], the EC50 in assay [1] was 555 nM; in assay [2] it was 51 nM.
